The first series deals with endogenous glucocorticoid receptor (Homo sapiens, UniProt P04150). The settings on record: concentration ≦10 µM; A549 cells stimulated with 10 ng/ml PMA; versus buffer control. The method, then: A549 cells, which contain endogenous glucocorticoid receptor, were stably transfected with an AP-1 DNA binding site attached to the luciferase gene. […] Cells are plated the day before the assay at approximately 40000 cells/well. […] Activity is measured by analysis in a luminometer as compared to control experiments treated with buffer or dexamethasome.
endogenous glucocorticoid receptor, sequence (P04150 whole entry): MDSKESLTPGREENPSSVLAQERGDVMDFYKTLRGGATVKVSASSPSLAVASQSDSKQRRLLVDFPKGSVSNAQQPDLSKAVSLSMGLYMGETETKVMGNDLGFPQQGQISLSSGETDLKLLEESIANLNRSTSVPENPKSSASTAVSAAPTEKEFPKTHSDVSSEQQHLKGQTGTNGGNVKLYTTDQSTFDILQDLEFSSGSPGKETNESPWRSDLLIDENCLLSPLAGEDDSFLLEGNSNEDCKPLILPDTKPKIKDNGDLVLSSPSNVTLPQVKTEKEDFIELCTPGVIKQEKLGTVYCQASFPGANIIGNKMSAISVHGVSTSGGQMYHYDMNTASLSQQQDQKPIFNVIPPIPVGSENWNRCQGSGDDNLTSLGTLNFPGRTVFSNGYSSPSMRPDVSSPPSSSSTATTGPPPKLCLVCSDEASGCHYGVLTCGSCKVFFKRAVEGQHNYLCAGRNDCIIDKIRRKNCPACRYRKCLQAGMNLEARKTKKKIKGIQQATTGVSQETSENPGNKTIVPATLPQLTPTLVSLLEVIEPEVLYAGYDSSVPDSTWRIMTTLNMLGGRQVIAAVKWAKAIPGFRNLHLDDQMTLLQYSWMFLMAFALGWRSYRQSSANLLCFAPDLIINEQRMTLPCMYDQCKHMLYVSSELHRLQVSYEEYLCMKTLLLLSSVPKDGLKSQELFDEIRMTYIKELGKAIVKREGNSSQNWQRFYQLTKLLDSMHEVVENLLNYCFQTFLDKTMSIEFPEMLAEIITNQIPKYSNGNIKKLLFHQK
For the compound `C[C@@H]1C[C@H]2[C@@H]3CCC4=CC(=O)C=C[C@]4(C)[C@@]3(F)[C@@H](O)C[C@]2(C)[C@@]1(O)C(=O)CO` [dexamethasone], the “% inhibition of the reporter system (suppresses activity)” value is 65%.

Test system in another series: not given
Conditions: not given
`N#Cc1ccc(N2C(=O)C3=CCCN3C2=O)c2ccccc12` came in with a melting point of 230 to 232 °C. Still for that read-out and setting: the result for `C[C@@]12C(=O)N(c3ccc(C#N)c4ccccc34)C(=O)N1CC[C@@H]2O` reads 234 to 235 °C; that for `C[C@]12C(=O)N(c3ccc(C#N)c4ccccc34)C(=O)N1CC[C@H]2O`, 232 to 234 °C. For `N#Cc1ccc(N2C(=O)[C@@H]3[C@H](O)CCN3C2=S)c2ccccc12`, the melting point lay in the range of 215 to 216 °C. For the compound `CC(C)(C)[C@H]1N(c2ccc(C#N)c3ccccc23)C(=O)[C@@H]2C[C@@H](O)CN21`, the melting point lay in the range of 155 to 157 °C. Same read-out and setting: the result for `N#Cc1ccc(N2C(=O)[C@H]3[C@@H](O)CCCN3C2=O)c2ccccc12` reads 244 °C; that for `CC(C)(C)OC(=O)N1CCN2C(=O)N(c3ccc(C#N)c4ccccc34)C(=O)C2C1` (stereo not shown), 222 to 224 °C; that for `N#Cc1ccc(N2C[C@@H]3[C@H](O)CCN3C2=O)c2ccccc12`, 226 to 228 °C. `N#Cc1ccc(N2CC3[C@@H](O)CCN3C2=O)c2ccccc12` (stereo partly shown) had a melting point of 226 to 228 °C.

`O=C1C2C[C@@H](OCc3ccccc3)CN2C(=O)N1c1ccc([N+](=O)[O-])c2ccccc12` (stereo partly shown) had a melting point of 120 to 122 °C.

Turning to `O=C1C2CCCCN2C(=O)N1c1ccc([N+](=O)[O-])c2ccccc12` (racemic), the melting point lay within 190 to 192 °C. In turn, `O=C1[C@H]2[C@@H](O)CCN2C(=O)N1c1ccc(Br)c2ccccc12` (racemic) gave a melting point of 204 to 206 °C.

Turning to `CO[C@H]1CCN2C(=O)N(c3ccc(C#N)c4ccccc34)C(=O)[C@@H]12` (racemic), the melting point fell in the range of 185 to 186 °C.

In turn, `CC(=O)O[C@@H]1CCN2C(=O)N(c3ccc(C#N)c4ccccc34)C(=O)[C@H]12` (racemic) registered a melting point of 105 °C. Still for that read-out and setting: under `N#Cc1ccc(N2C(=O)[C@@H]3[C@H](O)CCCN3C2=O)c2ccccc12` (racemic) stands 243 °C; under `Cl.N#Cc1ccc(N2C(=O)C3CNCCN3C2=O)c2ccccc12` (racemic), 200 °C. As for `CS(=O)(=O)N1CCN2C(=O)N(c3ccc(C#N)c4ccccc34)C(=O)C2C1` (racemic), the melting point was 207 to 216 °C. As for `N#Cc1ccc(N2C(=O)[C@H]3[C@@H](O)[C@@H](O)CN3C2=O)c2ccccc12` (stereo in doubt), the melting point worked out at 246 °C. The same measure, in the same setting: the result for `N#Cc1ccc(N2C(=O)[C@@H]3[C@H](O)[C@H](O)CN3C2=O)c2ccccc12` (stereo in doubt) reads 225 °C.

Another series has as its target T1, AR (Rattus norvegicus, UniProt P15207).
T1 sequence (P15207 1-902): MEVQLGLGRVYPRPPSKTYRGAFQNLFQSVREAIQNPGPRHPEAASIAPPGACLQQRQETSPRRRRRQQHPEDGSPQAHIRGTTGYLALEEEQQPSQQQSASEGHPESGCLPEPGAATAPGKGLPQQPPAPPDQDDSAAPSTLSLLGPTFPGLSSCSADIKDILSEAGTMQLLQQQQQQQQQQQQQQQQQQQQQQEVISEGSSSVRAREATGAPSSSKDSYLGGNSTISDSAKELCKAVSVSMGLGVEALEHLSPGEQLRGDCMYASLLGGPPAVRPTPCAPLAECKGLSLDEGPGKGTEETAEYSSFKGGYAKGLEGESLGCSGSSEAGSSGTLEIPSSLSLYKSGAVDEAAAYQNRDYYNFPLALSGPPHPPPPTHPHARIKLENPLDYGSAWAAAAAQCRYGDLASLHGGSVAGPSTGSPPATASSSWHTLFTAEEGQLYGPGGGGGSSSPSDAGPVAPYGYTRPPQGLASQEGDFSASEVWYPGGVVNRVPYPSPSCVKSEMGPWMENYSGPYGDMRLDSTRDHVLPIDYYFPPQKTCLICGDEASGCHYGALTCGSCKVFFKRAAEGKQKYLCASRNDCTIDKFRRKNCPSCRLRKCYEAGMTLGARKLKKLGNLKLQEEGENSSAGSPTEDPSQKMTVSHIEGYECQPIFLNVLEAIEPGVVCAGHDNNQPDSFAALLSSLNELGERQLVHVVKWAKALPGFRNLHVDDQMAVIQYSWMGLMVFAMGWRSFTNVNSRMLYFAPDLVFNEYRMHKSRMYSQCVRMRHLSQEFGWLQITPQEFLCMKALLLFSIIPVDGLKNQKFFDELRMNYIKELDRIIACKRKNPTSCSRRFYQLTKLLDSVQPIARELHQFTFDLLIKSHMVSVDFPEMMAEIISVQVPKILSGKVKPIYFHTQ
As to conditions: immature castrated rats. From the text:
The activity of compounds of the present invention as AR agonists was investigated in an immature male rat model, a recognized test of anabolic effects in muscle and sustaining effects in sex organs for a given compound, as described in L. G. Hershberger et al., Proc. Soc. […] Biol. Med., 83, 175 (1953); B. L. Beyler et al, “Methods for evaluating anabolic and catabolic agents in laboratory animals”, J. Amer. Med. Women's Ass., 23, 708 (1968); H. Fukuda et al., “Investigations of the levator ani muscle as an anabolic steroid assay”, Nago Dai. Yak. Ken. Nem. 14, 84 (1966) the disclosures of which are herein incorporated by reference.
The basis of this assay lies in the well-defined action of androgenic agents on the maintenance and growth of muscle tissues and sexual accessory organs in animals and man. […] J. Anat. […] Ital. Biol. Sper. […] II. […] Ital. Biol. Sper. 42, 1600 (1966); A. Boris et al., Steroids 15, 61 (1970). As described above, the effects of androgens on maintenance of male sexual accessory organs, such as the prostate and seminal vesicles, is well described. Castration results in rapid involution and atrophy of the prostate and seminal vesicles. This effect can be reversed by exogenous addition of androgens. […]
With `CCC(=O)O[C@H]1CC[C@H]2[C@@H]3CCC4=CC(=O)CC[C@]4(C)[C@H]3CC[C@]12C` [TP, testosterone propionate], the “EC50 (organ weight increase)” value was approximately 0.03 mg.

The series is the same for the next values; noted with them: organ weight increase, castrated rats.
Take `CCC(=O)O[C@H]1CC[C@H]2[C@@H]3CCC4=CC(=O)CC[C@]4(C)[C@H]3CC[C@]12C` [TP, testosterone propionate]: the “potency relative to free T” value is 10–30 fold.
